According to patent publication US20080206332A1, “SUSTAINED RELEASE ORAL DOSAGE FORMS OF A PRODRUG OF R-BACLOFEN AND METHODS OF TREATMENT” (priority 2007, published 2008):
Each block holds one molecule with its values, some of them ahead of it.

Columns and labels:
[1] = in vivo; cited from earlier work
[2] = clinical trials (Castell et al.); cited from earlier work
[3] = dosed either orally or directly into the colon of a mammal; cited from earlier work
[4] = 2 mg t.i.d. R-baclofen equivalent to racemic baclofen 10 mg t.i.d.; cited from earlier work
[5] = Pharmacokinetics of R-baclofen in dogs after oral dosage forms of compound (1); parameters: species or system Beagle dogs; details: dog, in vivo, iv, 10 mg-eq/kg R-baclofen administered intravenously
Method: The dogs were fasted overnight before the study and for 4 hours post-dosing. Blood samples (1 mL) were obtained via the femoral vein at intervals over 24 hours after oral dosing. Blood was quenched immediately using acetonitrile with 1% formic acid and then frozen at −20° C. until analyzed.
The concentration of R-baclofen in quenched whole blood was determined using an API 2000 LC/MS/MS instrument equipped with a Shimadzu binary pump and a Leap CTC autosampler. A Phenomenex Hydro-RP 4.6×50 mm column operating at room temperature was used. The mobile phases were (A) water with 0.1% formic acid, and (B) acetonitrile with 0.1% formic acid. The gradient condition was: 5% B for 0.5 min, then to 95% B in 1.8 min; then maintained at 95% B for 1.2 min. The mobile phase was then returned to 5% B for 2 min. A TurbolonSpray source was used on the API 2000. The analysis was done in positive ion mode and an MRM transition of m/z 214/151 was used in the analysis of R-baclofen. Ten (10) μL of the blood sample was injected. The peaks were integrated using Analyst™ Software ([…]) to provide the concentration of R-baclofen in the blood sample.
Pharmacokinetic profiles of sustained release oral dosage forms prepared according to Examples 1-4 at a dose of 10 mg compound (1) following oral administration to dogs is shown in FIG. 5.

Compound: NCC(CC(=O)O)c1ccc(Cl)cc1 (racemic) [baclofen, (±)-4-Amino-3-(4-chlorophenyl)butanoic acid]
elimination half-life [1]: 3 to 4 h

Compound: CC(C)C(=O)O[C@@H](OC(=O)NC[C@H](CC(=O)O)c1ccc(Cl)cc1)C(C)C [Compound (1), (3R)-4-{[(1S)-2-methyl-1-(2-methylpropanoyloxy)propoxy]carbonylamino}-3-(4-chlorophenyl)butanoic acid]
reflux episodes in clinical trials [2]: reduce reflux episodes | bioavailability as R-baclofen [3]: high bioavailability

AUC(0-inf) [5]: 1.98 µg·h/mL
Compound: NC[C@H](CC(=O)O)c1ccc(Cl)cc1 [R-baclofen, R-(−)-baclofen]
potency of orally administered R-baclofen relative to orally administered racemic baclofen [4]: about 5 times
